Legend:
[1] = system: White rats fed with a standard food and drink diet; test: Total blood serum cholesterol in rats on normal diet, 36-week intragastrular administration; type: in vivo, rat; conditions: 36 weeks
Description: White rats (mails) were fed with a standard food and drink diet. Experimental and control groups (7 animals in each) were formed by randomization using body mass as the principal feature. EBI was administered to the experimental animals intragastrularly as a water solution during 36 weeks. The control group received an equivalent amount of placebo. At the end of each experiment, animals were decapitated under light ether narcosis 18 hours after food withdrawal. Total cholesterol in blood serum was measured enzymatically.

[2] = system: rats fed with high-cholesterol diet; test: Lipid metabolism and redox-vitamins in blood serum of rats under high-cholesterol diet, four-week administration; type: in vivo, rat; conditions: 4 weeks; for HDL / LDL / VLDL: blood serum lipoprotein fraction; for HDL / LDL / VLDL / Total cholesterol / Triglycerids / Vitamin A / Vitamin E: high-cholesterol diet; for Total cholesterol / Triglycerids / Vitamin A / Vitamin E: blood serum
Description: Forty white rats (mails) were divided for four groups (ten in each) by randomization using body mass as the principal feature. One group (control) was fed with a normal diet, and three others were fed with a high-cholesterol diet. The latter once received three times per week special food with the following additives: cholesterol (500 mg/kg), vitamin D3 (10000 ME/kg) and pork fat (1000 mg/kg). As a drink, these animals daily received a mixture (1:1) of glucose (5% water solution) and sodium chloride (2.5% water solution). Two groups of animals fed with the high-cholesterol diet received daily a water solution of EBI intragastrularly, and the control group received an equivalent amount of placebo. At the end of each experiment, animals were decapitated under light ether narcosis 18 hours after food withdrawal. Total cholesterol and triglycerides in blood serum were measured enzymatically. Lipoproteins were divided by electrophoresis in agar gel, then dyed with lipid-specific stuff and measured by a direct densitometry. Vitamins A and E were measured by fluorimetric analysis.

[3] = system: Volunteers with a high level of cholesterol; test: Total cholesterol in volunteers with high cholesterol after four-week administration; type: in vivo, human
Description: Volunteers with a high level of cholesterol were selected for clinical study. During the experiment, each patient had their normal personal diet without any special limitations (fats, high-cholesterol food, etc.). All the patients received daily EBI (2.5 mcg) dissolved in ethanol (0.03 ml) and mixed with water (50 ml). Administering the EBI was not adjusted with the meal-receiving time.

Solubility in water = type: physicochemical
Excerpt: Compositions useful for administration of EBI can be easily prepared. The simplest way is the use of water-based solutions. […] Preferable concentrations are laying in the range of 10^−5–10^−6% that corresponds to 0.1–0.01 mcg/ml. […] Other drinkable or eatable forms and non-aqueous carriers may also be used.

mice = conditions: acute toxicity; cited from earlier work
rats = conditions: acute toxicity; cited from earlier work
[4] = prolonged and chronic experiments; cited from earlier work
[5] = 2 mcg/kg daily, listed as 24-epibrassinolide
[6] = 20 mcg/kg daily, listed as 24-epibrassinolide

With `CC(C)[C@@H](C)[C@@H](O)[C@H](O)[C@@H](C)[C@H]1CC[C@H]2[C@@H]3COC(=O)[C@H]4C[C@H](O)[C@H](O)C[C@]4(C)[C@H]3CC[C@]12C` [EBI, 24-epibrassinolide] the “total blood serum cholesterol” value ([1]; 0.2 mcg/kg intragastrular) was 62.17 ± 5.54 mg/deciliter, the “total blood serum cholesterol, percentage change vs control” value ([1]; 0.2 mcg/kg intragastrular) was −9% and the “total blood serum cholesterol” value ([1]; 2 mcg/kg intragastrular) was 57.81 ± 6.34 mg/deciliter. For the same compound, the “total blood serum cholesterol, percentage change vs control” value ([1]; 2 mcg/kg intragastrular) was −15%, the “total blood serum cholesterol” value ([1]; 20 mcg/kg intragastrular) was 54.25 ± 3.17 mg/deciliter and the “total blood serum cholesterol, percentage change vs control” value ([1]; 20 mcg/kg intragastrular) was “(−20%)”. For the same compound, the “total blood serum cholesterol” value ([1]; 200 mcg/kg intragastrular) was 51.08 ± 5.15 mg/deciliter, the “total blood serum cholesterol, percentage change vs control” value ([1]; 200 mcg/kg intragastrular) was “(−25%)” and the “lower cholesterol (lowering depending on dose)” value ([1]; normal cholesterol) was 9–25%. For the same compound, the “HDL, percentage related to the high-cholesterol diet” value (from here on “HDL, percentage related”) ([2]; 2 mcg/kg daily) was −1%, the “LDL, percentage related to the high-cholesterol diet” value ([2]; 2 mcg/kg daily) was 0% and the “Total cholesterol, percentage related to the high-cholesterol diet” value ([2]; 2 mcg/kg daily) was “(−34%)”. For the same compound, the “Triglycerids, percentage related to the high-cholesterol diet” value ([2]; 2 mcg/kg daily) was −58%, the “VLDL, percentage related to the high-cholesterol diet” value ([2]; 2 mcg/kg daily) was “+9%” and the “Vitamin A, percentage related to the high-cholesterol diet” value (from here on “Vitamin A, percentage related”) ([2]; 2 mcg/kg daily) was 16%. The “Vitamin E, percentage related to the high-cholesterol diet” value (from here on “Vitamin E, percentage related”) ([2]; 2 mcg/kg daily) was 53%, the “reduction of plasma concentration of total cholesterol vs high-cholesterol diet without EBI” value ([2]; 2 mcg/kg daily) was 34% and the “reduction of plasma concentration of triglycerides vs high-cholesterol diet without EBI” value ([2]; 2 mcg/kg daily) was 58%. The “Vitamin A, percentage related” value [2, 5] was “+16%”, the “Vitamin E, percentage related” value [2, 5] was “(+53%)” and the “HDL, percentage related” value ([2]; 20 mcg/kg daily) was 47%. The “LDL, percentage related to the high-cholesterol diet” value ([2]; 20 mcg/kg daily) was “(−11%)”, the “Total cholesterol, percentage related to the high-cholesterol diet” value ([2]; 20 mcg/kg daily) was “(−44%)” and the “Triglycerids, percentage related to the high-cholesterol diet” value ([2]; 20 mcg/kg daily) was −68%. The “VLDL, percentage related to the high-cholesterol diet” value ([2]; 20 mcg/kg daily) was −11%, the “Vitamin A, percentage related” value ([2]; 20 mcg/kg daily) was 30% and the “Vitamin E, percentage related” value ([2]; 20 mcg/kg daily) was 51%. The “reduction of low-density lipoprotein vs high-cholesterol diet only” value ([2]; 20 mcg/kg daily) was 11%, the “reduction of plasma concentration of total cholesterol vs high-cholesterol diet only” value ([2]; 20 mcg/kg daily) was 44% and the “reduction of plasma concentration of triglycerides vs high-cholesterol diet only” value ([2]; 20 mcg/kg daily) was 68%. The “HDL, percentage related” value [2, 6] was “(+47%)”, the “Vitamin A, percentage related” value [2, 6] was “(+30%)” and the “Vitamin E, percentage related” value [2, 6] was “(+51%)”. For the same compound, the “decrease of VLDL level” value ([2]; 20 mcg/kg) was 11%, the HDL ([2]; 2 mcg/kg daily) was 19.45 ± 1.14% and the LDL ([2]; 2 mcg/kg daily) was 75.24 ± 1.23%. For the same compound, the VLDL ([2]; 2 mcg/kg daily) was 5.31 ± 0.24%, the HDL ([2]; 20 mcg/kg daily) was 28.72 ± 1.22 % and the LDL ([2]; 20 mcg/kg daily) was 66.97 ± 1.23 %. For the same compound, the VLDL ([2]; 20 mcg/kg daily) was 4.33 ± 0.45%, the Total cholesterol ([2]; 2 mcg/kg daily) was 64.94 ± 5.15 mg/deciliter and the Triglycerids ([2]; 2 mcg/kg daily) was 0.80 ± 0.09 mmol/L. The “Vitamin A” value ([2]; 2 mcg/kg daily) was 0.26 ± 0.02 mmol/L, the “Vitamin E” value ([2]; 2 mcg/kg daily) was 1.90 ± 0.14 mmol/L and the Total cholesterol ([2]; 20 mcg/kg daily) was 55.04 ± 4.36 mg/deciliter. The Triglycerids ([2]; 20 mcg/kg daily) was 0.60 ± 0.04 mmol/L, the “Vitamin A” value ([2]; 20 mcg/kg daily) was 0.29 ± 0.01 mmol/L and the “Vitamin E” value ([2]; 20 mcg/kg daily) was 1.88 ± 0.10 mmol/L. The “decrease of total cholesterol” value ([2]; doses of 2 and 20 mcg/kg) was 34–44%, the decrease of triglycerides ([2]; doses of 2 and 20 mcg/kg) was 58–68% and the “plasma total cholesterol lower than the starting level, on average” value ([3]; 6 volunteers with hypercholesterolemia, 2.5 mcg daily, 4 weeks) was 38%. For the same compound, the “Total Cholesterol in Plasma (after 4 weeks)” value ([3]; humans, 2.5 mcg daily oral, start 287.1 ± 38.8) was 177.8 ± 12.3 mg/deciliter, the “Percentage Change in Cholesterol” value ([3]; humans, 2.5 mcg daily, 4 weeks, vs start) was −38% and the solubility in water (Solubility in water) was “relatively small”. For the same compound, the LD50 (mice) was “more than 1000 mg/kg”, the LD50 (rats) was “more than 2000 mg/kg” and the postponed negative effects [4] was “no postponed negative effects”.
